Numbered stars: 1 amine (or outer) side, 2 acyl side, 3 side chain; on linkers, the order of the positions; unused ones are H or OH. Bridge positions count the residues as written; N and C are the ends. Square brackets hold non-standard residues; d marks the D form. Peptide text beside a SMILES is read from it. * marks the point of attachment. C20 diacid = O=C(O)CCCCCCCCCCCCCCCCCCC(=O)*; γGlu = O=C(O)[C@H](CCC(=O)[*:2])N[*:1]; Hyp = O=C(O)[C@@H]1C[C@@H](O)CN1
Columns and labels:
hAMY3 receptor = target: T1, hAMY3 receptor (Homo sapiens, UniProt O60896+P30988); experiment: cAMP assay for in vitro receptor activation, hAMY3-R; type: cell-based; details: cAMP assay, hAMY3 receptor; read-out: hAMY3R EC50
T1 sequence (P30988 25-474): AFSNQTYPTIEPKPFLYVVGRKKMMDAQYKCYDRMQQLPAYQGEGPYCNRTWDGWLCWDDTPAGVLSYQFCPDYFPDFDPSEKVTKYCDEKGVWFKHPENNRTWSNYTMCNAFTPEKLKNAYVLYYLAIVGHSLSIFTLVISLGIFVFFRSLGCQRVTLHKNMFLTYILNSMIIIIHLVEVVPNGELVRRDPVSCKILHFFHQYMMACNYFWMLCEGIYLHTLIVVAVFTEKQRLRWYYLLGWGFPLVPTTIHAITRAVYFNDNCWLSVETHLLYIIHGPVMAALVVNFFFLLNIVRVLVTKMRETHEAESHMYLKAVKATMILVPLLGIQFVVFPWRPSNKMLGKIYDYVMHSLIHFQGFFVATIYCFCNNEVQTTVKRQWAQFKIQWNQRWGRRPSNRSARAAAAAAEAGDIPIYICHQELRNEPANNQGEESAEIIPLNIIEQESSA
T1 sequence (O60896 24-148 partner): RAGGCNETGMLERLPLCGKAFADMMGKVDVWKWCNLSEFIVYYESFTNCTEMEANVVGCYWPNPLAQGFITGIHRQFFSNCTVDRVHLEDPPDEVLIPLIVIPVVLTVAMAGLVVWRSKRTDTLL
In short: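 Graded compound concentrations were applied for 30 min at room temperature to stably hAMY3-expressing cells in DPBS, 0.05% casein, 0.5 mM IBMX; cAMP detected by TR-FRET.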

hAM1 receptor = hAM1 receptor (Homo sapiens, UniProt O60895+Q16602); experiment: cAMP assay for in vitro receptor activation, hAM1-R; type: cell-based; details: cAMP assay, hAM1 receptor; read-out: hAM1R EC50
Description: General Protocols for cAMP Assays for Measuring In Vitro Receptor Activation
Cells stably overexpressing the hAM1 receptor were obtained from Ogeda (now Astellas Pharma), sub-cloned and a monoclonal cell-line with an appropriate assay-window was expanded, aliquoted and frozen. An aliquot was thawed and plated in DPBS with 0.05% casein and 0.5 mM IBMX as 8000 cells/well in a 384-well format.

hAM1 receptor, sequence (Q16602 23-461): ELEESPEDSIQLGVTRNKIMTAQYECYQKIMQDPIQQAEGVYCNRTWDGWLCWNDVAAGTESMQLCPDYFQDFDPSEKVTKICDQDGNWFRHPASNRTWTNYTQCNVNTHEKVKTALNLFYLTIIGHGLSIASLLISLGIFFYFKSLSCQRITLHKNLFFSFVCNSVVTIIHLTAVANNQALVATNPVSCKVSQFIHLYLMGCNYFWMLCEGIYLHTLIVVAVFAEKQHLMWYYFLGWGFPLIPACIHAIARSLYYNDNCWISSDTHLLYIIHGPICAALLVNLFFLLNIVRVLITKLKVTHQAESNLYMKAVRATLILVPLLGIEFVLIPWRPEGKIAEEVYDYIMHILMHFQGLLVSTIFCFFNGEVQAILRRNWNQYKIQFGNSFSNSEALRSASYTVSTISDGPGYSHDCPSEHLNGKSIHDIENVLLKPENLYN
hAM1 receptor, sequence (O60895 43-175 partner): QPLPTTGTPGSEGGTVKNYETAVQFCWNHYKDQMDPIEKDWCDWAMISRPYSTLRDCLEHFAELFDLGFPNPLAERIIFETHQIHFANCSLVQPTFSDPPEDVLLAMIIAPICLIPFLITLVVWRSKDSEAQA

CC[C@H](C)[C@H](NC(=O)[C@H](CCC(N)=O)NC(=O)[C@H](CC(=O)O)NC(=O)[C@H](C)NC(=O)[C@H](CC(C)C)NC(=O)[C@H](CCCNC(=N)N)NC(=O)[C@H](CCC(N)=O)NC(=O)[C@@H](NC(=O)[C@@H](NC(=O)[C@@H]1CSSC[C@H](NC(=O)[C@H](CCCCN)NC(=O)CC[C@H](NC(=O)CCCCCCCCCCCCCCCCCCC(=O)O)C(=O)O)C(=O)N[C@@H](CC(N)=O)C(=O)N[C@@H]([C@@H](C)O)C(=O)N[C@@H](C)C(=O)N[C@@H]([C@@H](C)O)C(=O)N1)[C@@H](C)O)C(C)C)C(=O)N[C@@H](Cc1ccc(O)cc1)C(=O)N[C@@H](CCC(N)=O)C(=O)N[C@@H](Cc1ccccc1)C(=O)N[C@H](C(=O)N[C@@H](CC(=O)O)C(=O)N[C@@H](CCCCN)C(=O)N[C@@H](CC(=O)O)C(=O)N[C@@H](CCCCN)C(=O)N[C@@H](CC(=O)O)C(=O)N[C@@H](CC(N)=O)C(=O)N[C@H](C(=O)N[C@@H](C)C(=O)N1CCC[C@H]1C(=O)N1CCC[C@H]1C(=O)N[C@H](C(=O)N[C@@H](CC(N)=O)C(=O)N[C@H](C(=O)NCC(=O)N[C@@H](CO)C(=O)N[C@@H](CC(N)=O)C(=O)NCC(=O)N1C[C@H](O)C[C@H]1C(N)=O)C(C)C)[C@@H](C)O)C(C)C)[C@@H](C)O [compound 5] ({C20 diacid-γGlu}-KCNTATCTVQRLADQIYQFTDKDKDNVAPPTNVGSNG[Hyp]-NH2; disulfide 2-7)
EC50 (hAMY3 receptor): 0.006 nM
EC50 (hAM1 receptor): > 5000 nM

CC[C@H](C)[C@H](NC(=O)[C@H](CCC(N)=O)NC(=O)[C@H](CC(=O)O)NC(=O)[C@H](C)NC(=O)[C@H](CC(C)C)NC(=O)[C@H](CCCNC(=N)N)NC(=O)[C@H](C)NC(=O)[C@@H](NC(=O)[C@@H](NC(=O)[C@@H]1CSSC[C@H](NC(=O)[C@@H](N)CCCCN)C(=O)N[C@@H](CC(N)=O)C(=O)N[C@@H]([C@@H](C)O)C(=O)N[C@@H](CO)C(=O)N[C@@H]([C@@H](C)O)C(=O)N1)[C@@H](C)O)C(C)C)C(=O)N[C@H](C(=O)N[C@@H](CCC(N)=O)C(=O)N[C@@H](Cc1ccccc1)C(=O)N[C@@H](CO)C(=O)N[C@@H](CC(N)=O)C(=O)N[C@@H](CCCCN)C(=O)N[C@@H](CC(=O)O)C(=O)N[C@@H](CCCCN)C(=O)N[C@@H](C)C(=O)N[C@@H](CCC(N)=O)C(=O)N[C@H](C(=O)N[C@@H](CO)C(=O)N1CCC[C@H]1C(=O)N1CCC[C@H]1C(=O)N[C@H](C(=O)N[C@@H](CCC(=O)O)C(=O)N[C@H](C(=O)NCC(=O)N1CCC[C@H]1C(=O)N[C@@H](CC(N)=O)C(=O)N[C@@H](CO)C(=O)N1C[C@H](O)C[C@H]1C(N)=O)C(C)C)[C@@H](C)O)C(C)C)[C@@H](C)O [compound 8] (H-KCNTSTCTVARLADQITQFSNKDKAQVSPPTEVGPNS[Hyp]-NH2; disulfide 2-7; N-terminus assumed)
EC50 (hAMY3 receptor): 0.006 nM
EC50 (hAM1 receptor): > 5000 nM

CC[C@H](C)[C@H](NC(=O)[C@H](CCC(N)=O)NC(=O)[C@H](CC(=O)O)NC(=O)[C@H](C)NC(=O)[C@H](CC(C)C)NC(=O)[C@H](CCCNC(=N)N)NC(=O)[C@H](CC(N)=O)NC(=O)[C@@H](NC(=O)[C@@H](NC(=O)[C@@H]1CSSC[C@H](NC(=O)[C@@H](N)CCCNC(=N)N)C(=O)N[C@@H](CC(N)=O)C(=O)N[C@@H](C)C(=O)N[C@@H](CO)C(=O)N[C@@H]([C@@H](C)O)C(=O)N1)[C@@H](C)O)C(C)C)C(=O)N[C@H](C(=O)N[C@@H](CCC(N)=O)C(=O)N[C@@H](Cc1ccccc1)C(=O)N[C@@H](CO)C(=O)N[C@@H](CC(N)=O)C(=O)N[C@@H](CCCCN)C(=O)N[C@@H](CC(=O)O)C(=O)N[C@@H](CCCCN)C(=O)N[C@@H](C)C(=O)N[C@@H](CCC(N)=O)C(=O)N[C@H](C(=O)N[C@@H](CO)C(=O)N1CCC[C@H]1C(=O)N1CCC[C@H]1C(=O)N[C@H](C(=O)N[C@@H](CCC(=O)O)C(=O)N[C@H](C(=O)NCC(=O)N1CCC[C@H]1C(=O)N[C@@H](CC(N)=O)C(=O)N[C@@H](CO)C(=O)N1C[C@H](O)C[C@H]1C(N)=O)C(C)C)[C@@H](C)O)C(C)C)[C@@H](C)O [compound 9] (H-RCNASTCTVNRLADQITQFSNKDKAQVSPPTEVGPNS[Hyp]-NH2; disulfide 2-7; N-terminus assumed)
EC50 (hAMY3 receptor): 0.006 nM
EC50 (hAM1 receptor): > 5000 nM

Source: patent US12139520B2 (priority 2020, dated 2024)
